Experimental data taken from PubChem BioAssay (NCI).
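Results reflect a 48-hour exposure of cells in 96-well plates to compound at five concentrations. TGI marks complete inhibition of growth.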

Experiments:
Test in all cases: growth of human tumour cells (NCI), 48 h
ACHN renal = system: ACHN renal
HS 578T breast = system: HS 578T breast
MDA-MB-231 breast = system: MDA-MB-231 breast
UACC-257 melanoma = system: UACC-257 melanoma
TK-10 renal = system: TK-10 renal
M14 melanoma = system: M14 melanoma
HCC-2998 colon = system: HCC-2998 colon
DU-145 prostate = system: DU-145 prostate
SN12C renal = system: SN12C renal
OVCAR-5 ovarian = system: OVCAR-5 ovarian
MCF7 breast = system: MCF7 breast
K-562 leukemia = system: K-562 leukemia
EKVX NSCLC = system: EKVX NSCLC
NCI/ADR-RES ovarian = system: NCI/ADR-RES ovarian
HCT-116 colon = system: HCT-116 colon
U251 CNS = system: U251 CNS
HT29 colon = system: HT29 colon
MOLT-4 leukemia = system: MOLT-4 leukemia
SW-620 colon = system: SW-620 colon
OVCAR-4 ovarian = system: OVCAR-4 ovarian
SR leukemia = system: SR leukemia
MALME-3M melanoma = system: MALME-3M melanoma
NCI-H460 lung = system: NCI-H460 lung
SF-268 CNS = system: SF-268 CNS
A498 renal = system: A498 renal
SF-295 CNS = system: SF-295 CNS
HOP-92 NSCLC = system: HOP-92 NSCLC
RPMI-8226 leukemia = system: RPMI-8226 leukemia
COLO 205 colon = system: COLO 205 colon
SK-OV-3 ovarian = system: SK-OV-3 ovarian
OVCAR-8 ovarian = system: OVCAR-8 ovarian
BT-549 breast = system: BT-549 breast
MDA-MB-435 = system: MDA-MB-435
SK-MEL-28 melanoma = system: SK-MEL-28 melanoma
NCI-H23 lung = system: NCI-H23 lung
LOX IMVI melanoma = system: LOX IMVI melanoma
MDA-N = system: MDA-N
SK-MEL-5 melanoma = system: SK-MEL-5 melanoma
T-47D breast = system: T-47D breast
SF-539 CNS = system: SF-539 CNS
NCI-H226 lung = system: NCI-H226 lung
SNB-19 CNS = system: SNB-19 CNS
HOP-62 NSCLC = system: HOP-62 NSCLC
RXF 393 renal = system: RXF 393 renal
A549 NSCLC = system: A549 NSCLC
HCT-15 colon = system: HCT-15 colon
OVCAR-3 ovarian = system: OVCAR-3 ovarian
CAKI-1 renal = system: CAKI-1 renal
UO-31 renal = system: UO-31 renal
SK-MEL-2 melanoma = system: SK-MEL-2 melanoma
IGROV1 ovarian = system: IGROV1 ovarian
SNB-75 CNS = system: SNB-75 CNS
786-0 renal = system: 786-0 renal
PC-3 prostate = system: PC-3 prostate
UACC-62 melanoma = system: UACC-62 melanoma
KM12 colon = system: KM12 colon
CCRF-CEM leukemia = system: CCRF-CEM leukemia
HL-60(TB) leukemia = system: HL-60(TB) leukemia

## O=c1c(=O)c2cscc2c1=O
ACHN renal
  TGI: 8.37 µM
HS 578T breast
  TGI: > 25 µM
MDA-MB-231 breast
  TGI: 10 µM
UACC-257 melanoma
  TGI: 7.96 µM
TK-10 renal
  TGI: 8.04 µM
M14 melanoma
  TGI: 8.85 µM
HCC-2998 colon
  TGI: 6.44 µM
DU-145 prostate
  TGI: 11.4 µM
SN12C renal
  TGI: 13.3 µM
OVCAR-5 ovarian
  TGI: 9.61 µM
MCF7 breast
  TGI: 15.3 µM
K-562 leukemia
  TGI: 6.5 µM
EKVX NSCLC
  TGI: 10.7 µM
NCI/ADR-RES ovarian
  TGI: > 25 µM
HCT-116 colon
  TGI: 9.66 µM
U251 CNS
  TGI: 9.19 µM
HT29 colon
  TGI: 10.6 µM
MOLT-4 leukemia
  TGI: 10 µM
SW-620 colon
  TGI: 11.2 µM
OVCAR-4 ovarian
  TGI: 11.1 µM
SR leukemia
  TGI: 1.1 µM
MALME-3M melanoma
  TGI: 8.39 µM
NCI-H460 lung
  TGI: 23.3 µM
SF-268 CNS
  TGI: 8.82 µM
A498 renal
  TGI: > 25 µM
SF-295 CNS
  TGI: > 25 µM
HOP-92 NSCLC
  TGI: 11.2 µM
RPMI-8226 leukemia
  TGI: 12.1 µM
COLO 205 colon
  TGI: 8.61 µM
SK-OV-3 ovarian
  TGI: > 25 µM
OVCAR-8 ovarian
  TGI: 16.4 µM
BT-549 breast
  TGI: 8.72 µM
MDA-MB-435
  TGI: 9.85 µM
SK-MEL-28 melanoma
  TGI: 9.37 µM
NCI-H23 lung
  TGI: 12.3 µM
LOX IMVI melanoma
  TGI: 10 µM
MDA-N
  TGI: 9.72 µM
SK-MEL-5 melanoma
  TGI: 7.89 µM
T-47D breast
  TGI: 11.8 µM
SF-539 CNS
  TGI: 9.07 µM
NCI-H226 lung
  TGI: 10.5 µM
SNB-19 CNS
  TGI: 15.2 µM
HOP-62 NSCLC
  TGI: 10.8 µM
RXF 393 renal
  TGI: 9.2 µM
A549 NSCLC
  TGI: > 25 µM
HCT-15 colon
  TGI: 14.1 µM
OVCAR-3 ovarian
  TGI: 15.1 µM
CAKI-1 renal
  TGI: 8.49 µM
UO-31 renal
  TGI: 9.6 µM
SK-MEL-2 melanoma
  TGI: 9.31 µM
IGROV1 ovarian
  TGI: 8.4 µM
SNB-75 CNS
  TGI: 8.37 µM
786-0 renal
  TGI: 10.1 µM
PC-3 prostate
  TGI: 8.6 µM
UACC-62 melanoma
  TGI: 8.75 µM
KM12 colon
  TGI: 12.7 µM

## Cc1ccc(O)c(C2=CC3=NNC(=O)C3C(c3cccc(Br)c3)C2)c1 (centres undefined)
ACHN renal
  TGI: > 75 µM
HS 578T breast
  TGI: > 75 µM
MDA-MB-231 breast
  TGI: 59.4 µM
CCRF-CEM leukemia
  TGI: > 75 µM
UACC-257 melanoma
  TGI: > 75 µM
TK-10 renal
  TGI: 41.3 µM
M14 melanoma
  TGI: > 75 µM
HCC-2998 colon
  TGI: 31.7 µM
DU-145 prostate
  TGI: > 75 µM
SN12C renal
  TGI: 63.5 µM
OVCAR-5 ovarian
  TGI: 68.5 µM
MCF7 breast
  TGI: 31.7 µM
K-562 leukemia
  TGI: > 75 µM
EKVX NSCLC
  TGI: > 75 µM
NCI/ADR-RES ovarian
  TGI: > 75 µM
HCT-116 colon
  TGI: > 75 µM
U251 CNS
  TGI: > 75 µM
HT29 colon
  TGI: > 75 µM
MOLT-4 leukemia
  TGI: > 75 µM
SW-620 colon
  TGI: > 75 µM
OVCAR-4 ovarian
  TGI: 37 µM
SR leukemia
  TGI: > 75 µM
HL-60(TB) leukemia
  TGI: > 75 µM
MALME-3M melanoma
  TGI: 71.1 µM
NCI-H460 lung
  TGI: > 75 µM
SF-268 CNS
  TGI: > 75 µM
A498 renal
  TGI: > 75 µM
SF-295 CNS
  TGI: 51.6 µM
HOP-92 NSCLC
  TGI: > 75 µM
RPMI-8226 leukemia
  TGI: 72.8 µM
COLO 205 colon
  TGI: 22.8 µM
SK-OV-3 ovarian
  TGI: 63.9 µM
OVCAR-8 ovarian
  TGI: 64.8 µM
BT-549 breast
  TGI: 64.1 µM
MDA-MB-435
  TGI: > 75 µM
SK-MEL-28 melanoma
  TGI: > 75 µM
NCI-H23 lung
  TGI: > 75 µM
LOX IMVI melanoma
  TGI: 27.3 µM
MDA-N
  TGI: > 75 µM
SK-MEL-5 melanoma
  TGI: > 75 µM
T-47D breast
  TGI: > 75 µM
SF-539 CNS
  TGI: > 75 µM
SNB-19 CNS
  TGI: > 75 µM
HOP-62 NSCLC
  TGI: > 75 µM
RXF 393 renal
  TGI: 28.2 µM
A549 NSCLC
  TGI: > 75 µM
HCT-15 colon
  TGI: > 75 µM
OVCAR-3 ovarian
  TGI: 68.7 µM
CAKI-1 renal
  TGI: > 75 µM
UO-31 renal
  TGI: > 75 µM
SK-MEL-2 melanoma
  TGI: > 75 µM
IGROV1 ovarian
  TGI: > 75 µM
SNB-75 CNS
  TGI: 70 µM
786-0 renal
  TGI: > 75 µM
PC-3 prostate
  TGI: > 75 µM
UACC-62 melanoma
  TGI: 70.9 µM
KM12 colon
  TGI: 39.5 µM

## Cn1c(-c2ccccc2)cc(-c2cccs2)c1-c1ccsc1
ACHN renal
  TGI: > 100 µM
HS 578T breast
  TGI: > 100 µM
MDA-MB-231 breast
  TGI: > 100 µM
CCRF-CEM leukemia
  TGI: > 100 µM
UACC-257 melanoma
  TGI: > 100 µM
TK-10 renal
  TGI: > 100 µM
M14 melanoma
  TGI: > 100 µM
HCC-2998 colon
  TGI: > 100 µM
DU-145 prostate
  TGI: > 100 µM
SN12C renal
  TGI: > 100 µM
OVCAR-5 ovarian
  TGI: > 100 µM
MCF7 breast
  TGI: > 100 µM
K-562 leukemia
  TGI: > 100 µM
EKVX NSCLC
  TGI: > 100 µM
NCI/ADR-RES ovarian
  TGI: > 100 µM
HCT-116 colon
  TGI: > 100 µM
U251 CNS
  TGI: > 100 µM
HT29 colon
  TGI: > 100 µM
MOLT-4 leukemia
  TGI: > 100 µM
SW-620 colon
  TGI: > 100 µM
OVCAR-4 ovarian
  TGI: > 100 µM
SR leukemia
  TGI: > 100 µM
HL-60(TB) leukemia
  TGI: > 100 µM
NCI-H460 lung
  TGI: > 100 µM
SF-268 CNS
  TGI: > 100 µM
A498 renal
  TGI: > 100 µM
SF-295 CNS
  TGI: > 100 µM
HOP-92 NSCLC
  TGI: > 100 µM
RPMI-8226 leukemia
  TGI: > 100 µM
COLO 205 colon
  TGI: > 100 µM
SK-OV-3 ovarian
  TGI: > 100 µM
OVCAR-8 ovarian
  TGI: > 100 µM
BT-549 breast
  TGI: > 100 µM
MDA-MB-435
  TGI: > 100 µM
NCI-H23 lung
  TGI: > 100 µM
LOX IMVI melanoma
  TGI: > 100 µM
MDA-N
  TGI: > 100 µM
SK-MEL-5 melanoma
  TGI: > 100 µM
T-47D breast
  TGI: > 100 µM
SF-539 CNS
  TGI: > 100 µM
NCI-H226 lung
  TGI: > 100 µM
SNB-19 CNS
  TGI: > 100 µM
HOP-62 NSCLC
  TGI: > 100 µM
RXF 393 renal
  TGI: > 100 µM
A549 NSCLC
  TGI: > 100 µM
HCT-15 colon
  TGI: > 100 µM
OVCAR-3 ovarian
  TGI: > 100 µM
CAKI-1 renal
  TGI: > 100 µM
UO-31 renal
  TGI: > 100 µM
SK-MEL-2 melanoma
  TGI: > 100 µM
IGROV1 ovarian
  TGI: > 100 µM
SNB-75 CNS
  TGI: > 100 µM
786-0 renal
  TGI: > 100 µM
PC-3 prostate
  TGI: > 100 µM
UACC-62 melanoma
  TGI: > 100 µM
KM12 colon
  TGI: > 100 µM
